Results: ChEMBL document CHEMBL1201862, “PubChem BioAssay data set” (2004)
Several values for one entry are separate records, joined by “and”; a condition that tells them apart may be missing. Equal entries are not always repeated.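 All cell lines were grown in 96-well plates and treated with compound for 48 hours. Here, GI50 denotes the concentration required for 50% inhibition of growth.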 Activity calls are given as the source filed them. Rule as the data show it: active = GI50 up to about 1.1 µM and inactive = higher.

Tests used:
Assay in all cases: NCI anticancer screen, dose series, 48 h
[1] = system: A549
[2] = system: RXF 393
[3] = system: SN12C
[4] = system: SR
[5] = system: TK-10
[6] = system: 786-0
[7] = system: CAKI-1
[8] = system: OVCAR-5
[9] = system: OVCAR-8
[10] = system: M14
[11] = system: HCC 2998
[12] = system: OVCAR-3
[13] = system: BT-549
[14] = system: SW-620
[15] = system: SF-539
[16] = system: SK-MEL-28
[17] = system: U-251
[18] = system: DU-145
[19] = system: A498
[20] = system: MOLT-4

Compound	GI50 [1]	GI50 [2]	GI50 [3]	GI50 [4]	GI50 [5]	GI50 [6]	GI50 [7]	GI50 [8]	GI50 [9]	GI50 [10]	GI50 [11]	GI50 [12]	GI50 [13]	GI50 [14]	GI50 [15]	GI50 [16]	GI50 [17]	GI50 [18]	GI50 [19]	GI50 [20]
C[N+](C)(N)Cc1csc(-c2ccc(Cl)cc2)n1	71.8 µM (inactive)	> 100 µM (inactive)	34.8 µM (inactive)	> 100 µM (inactive)	> 100 µM (inactive)	> 100 µM (inactive)	> 100 µM (inactive)	> 100 µM (inactive)	> 100 µM (inactive)	> 100 µM (inactive)	> 100 µM (inactive)	89.5 µM (inactive)	34 µM (inactive)	> 100 µM (inactive)	> 100 µM (inactive)	> 100 µM (inactive)	> 100 µM (inactive)	> 100 µM (inactive)	88.5 µM (inactive)	–
CC(C)(C)c1ccc2c(c1)OCc1n[nH]c(n1)COc1cc(C(C)(C)C)ccc1OCCOCCO2	3.01 µM (inactive)	1.62 µM (inactive)	4.55 µM (inactive)	3.09 µM (inactive)	2.58 µM (inactive)	4.45 µM (inactive)	4.18 µM (inactive)	5.96 µM (inactive)	3.79 µM (inactive)	2.86 µM (inactive)	3.72 µM (inactive)	2.53 µM (inactive)	2.81 µM (inactive)	3.16 µM (inactive)	7.29 µM (inactive)	2.7 µM (inactive)	2.8 µM (inactive)	6.52 µM (inactive)	5.64 µM (inactive)	3.67 µM (inactive)
COc1ccc(/C=C2\CCCC(CN(C)C)C2=O)cc1 (configuration not stated)	17.7 µM (inactive)	–	2.56 µM (inactive)	1.02 µM (active)	3.36 µM (inactive)	1.79 µM (inactive)	1.69 µM (inactive)	9.08 µM (inactive)	3.64 µM (inactive)	1.72 µM (inactive)	6.71 µM (inactive)	1.94 µM (inactive)	1.92 µM (inactive)	0.891 µM (active)	14.9 µM (inactive)	2.01 µM (inactive)	1.95 µM (inactive)	16.6 µM (inactive)	16.8 µM (inactive)	0.774 µM (active)
CSc1c(C(=O)Nc2ccc(C)cc2)c(N)nn1-c1ccccc1	27.3 µM (inactive)	26.4 µM (inactive)	> 100 µM (inactive)	9.89 µM (inactive)	33.3 µM (inactive)	19.9 µM (inactive)	23.4 µM (inactive)	> 100 µM (inactive)	–	36.7 µM (inactive)	58.3 µM (inactive)	> 100 µM (inactive)	43.2 µM (inactive)	> 100 µM (inactive)	35.8 µM (inactive)	55.1 µM (inactive)	28.3 µM (inactive)	42.8 µM (inactive)	23.1 µM (inactive)	> 100 µM (inactive)
COc1cc([C@H]2OC[C@H]3[C@@H]2CO[C@@H]3c2cc(OC)c3c(c2)OCO3)cc(OC)c1OC	46 µM (inactive) and 55.2 µM (inactive)	–	96.8 µM (inactive)	17.3 µM (inactive) and 42.1 µM (inactive)	> 100 µM (inactive)	> 100 µM (inactive)	52.7 µM (inactive) and 25 µM (inactive)	> 100 µM (inactive)	31.3 µM (inactive) and 49.3 µM (inactive)	65.3 µM (inactive)	56 µM (inactive) and 27.9 µM (inactive)	87.1 µM (inactive)	31.6 µM (inactive) and 52.1 µM (inactive)	> 100 µM (inactive)	> 100 µM (inactive)	> 100 µM (inactive)	83 µM (inactive) and 57.9 µM (inactive)	81.3 µM (inactive)	> 100 µM (inactive)	12.9 µM (inactive) and > 10 µM (inactive)
Cc1nc(-c2cc3c(ccc4ccccc43)oc2=O)cc2c1c(=O)oc1ccc3ccccc3c12	> 100 µM (inactive)	> 100 µM (inactive)	–	> 100 µM (inactive)	> 100 µM (inactive)	> 100 µM (inactive)	> 100 µM (inactive)	> 100 µM (inactive)	> 100 µM (inactive)	> 100 µM (inactive)	> 100 µM (inactive)	> 100 µM (inactive)	> 100 µM (inactive)	> 100 µM (inactive)	> 100 µM (inactive)	> 100 µM (inactive)	> 100 µM (inactive)	> 100 µM (inactive)	> 100 µM (inactive)	> 100 µM (inactive)
O=S(=O)(SC1=NCCN1)c1cccc2ccccc12	22.8 µM (inactive)	23.9 µM (inactive)	23 µM (inactive)	> 10 µM (inactive)	–	25.4 µM (inactive)	24.9 µM (inactive)	22.1 µM (inactive)	28.8 µM (inactive)	27.6 µM (inactive)	> 10 µM (inactive)	44 µM (inactive)	22.9 µM (inactive)	32.7 µM (inactive)	20.3 µM (inactive)	47 µM (inactive)	35.1 µM (inactive)	29.6 µM (inactive)	26.1 µM (inactive)	27.7 µM (inactive)
CC[C@@H](C)[C@H]([C@H](CC(=O)N1CCC[C@@H]1[C@@H](OC)[C@H](C)C(=O)N[C@H](Cc1ccccc1)c1nccs1)OC)N(C)C(=O)[C@H](NC(=O)[C@@H](C(C)C)N(C)C)C(C)C	0.000121 µM (active)	0.000191 µM (active)	0.000486 µM (active)	2.75e-05 µM (active)	0.00181 µM (active)	0.000184 µM (active)	–	0.0005 µM (active)	0.000286 µM (active)	0.000165 µM (active)	0.00029 µM (active)	3.11e-05 µM (active)	< 0.01 µM (active)	9.12e-05 µM (active)	0.000168 µM (active)	0.00069 µM (active)	0.000249 µM (active)	< 0.01 µM (active)	0.000228 µM (active)	0.000229 µM (active)
CCOC(=O)c1nc2ccc(C(F)(F)F)cc2nc1Oc1ccc(F)cc1	–	> 100 µM (inactive)	–	> 100 µM (inactive)	> 100 µM (inactive)	> 100 µM (inactive)	> 100 µM (inactive)	–	> 100 µM (inactive)	> 100 µM (inactive)	> 100 µM (inactive)	–	> 100 µM (inactive)	> 100 µM (inactive)	> 100 µM (inactive)	> 100 µM (inactive)	> 100 µM (inactive)	> 100 µM (inactive)	> 100 µM (inactive)	> 100 µM (inactive)
c1ccc2c3c([nH]c2c1)C1c2[nH]c4ccccc4c2CCN1CC3	14.7 µM (inactive)	13.6 µM (inactive)	15.2 µM (inactive)	9.75 µM (inactive)	11.2 µM (inactive)	12.6 µM (inactive)	18.7 µM (inactive)	19.5 µM (inactive)	8.18 µM (inactive)	–	7.64 µM (inactive)	12.4 µM (inactive)	16.1 µM (inactive)	16.2 µM (inactive)	17.5 µM (inactive)	15.2 µM (inactive)	–	13.2 µM (inactive)	19 µM (inactive)	7.59 µM (inactive)
